Laboratory results: US10975087B2, “Solid forms of tetrahydropyranyl amino-pyrrolopyrimidinone compounds” (ArQule, Inc., priority 2018, dated 2021)
≈ marks a conversion by molar mass, not a printed value. Like-named read-outs stand apart in the source and are kept apart here.

Key:
Assay type in all cases: physicochemical
Competitive slurrying = settings: for form observed after competitive slurrying (XRPD): ambient and 50° C., acetone, ethanol, DIPE, acetonitrile, ca. 48 hours
Procedure: Approximately 5 mg of each form (Form 1 and Form 4, Form 1 and Form 8, and Form 4 and Form 8) was weighed and agitated at ambient and 50° C. in minimal acetone, ethanol, diisopropyl ether (DIPE) and acetonitrile. Approximately 8 drops of each solvent was added and the samples were then agitated for ca. 48 hours, before being analyzed by XRPD. Table 9 details the conditions.

[1] = Long term stability testing at 25° C./60% RH
Procedure: Long term stability testing was carried out for Form 1 at 25° C./60% RH. […] The water content was measured by KF analysis.

[2] = Gravimetric vapor sorption (GVS); settings: for Post-GVS analysis (form): after exposure to elevated humidity; for XRPD post GVS: cell wraps: Remained | unchanged; for GVS (hygroscopicity): summary Table 11
Procedure: Approximately 10-20 mg of sample was placed into a mesh vapor sorption balance pan and loaded into an IGASorp Moisture Sorption Analyzer balance by Hiden Analytical. The sample was subjected to a ramping profile from 40-90% relative humidity (RH) at 10% increments, maintaining the sample at each step until a stable weight had been achieved (98% step completion). After completion of the sorption cycle, the sample was dried using the same procedure to 0% RH, and finally taken back to the starting point of 40% RH. Two cycles were performed. The weight change during the sorption/desorption cycles were plotted, allowing for the hygroscopic nature of the sample to be determined.

Acetone solubility = settings: for Form: XRPD of damp solid after slurrying in Acetone, *Small amount of material analyzed; for Solubility / solid form after slurrying in acetone (XRPD) / solubility at 24 h: acetone; for solubility at 24 h: organic solvent or mixture, thermodynamic from solid; for Acetone solubility: residual solid: form of residual solid, amorphous input: Form 2 residual solid with additional peaks
Procedure: (§1) Aqueous and acetone solubility was carried out using 3-10 mg of material, depending on availability, and slurrying in 150-200 μL of acetone or 300 μL of deionized water. The samples were agitated at ambient temperature then filtered by centrifugation (0.22 μm nylon filter) after ca. 24 hours and the solids analyzed by XRPD as damp solids. The filtrates were analyzed by HPLC for concentration determination. The water solubility was too low for detection using the current analytical method.

[3] = 7 day stability testing, open vials at 40° C./75% RH, ambient and 80° C.; settings: for Purity after 1 week (%) / area % purity and form changes after 1 week: open vials; for T = 0 purity (%): T = 0, before storage; for area % purity and form changes after 1 week: ambient, 40° C./75% RH and 80° C.; for Stability testing: cell wraps: No drop in purity or change in form
Aqueous solubility = settings: for Solubility (mg/mL): Water; for Form: XRPD of damp solid after slurrying in Water, AXRPD: Amorphous by XRPD, but limited material for analysis; for XRPD post aqueous solubility: amorphous: Form 1 from solubility screen, Form 8: Amorphous, limited material
Procedure: as §1

[4] = Accelerated stability testing at 40° C./75% RH for 6 months
Procedure: Accelerated stability testing was carried out for Form 1 at 40° C./75% RH for 6 months. […] The water content was measured by KF analysis.

[5] = ambient temperature, ca. 24 hours
[6] = deionized water, ambient temperature, ca. 24 hours
[7] = summary Table 11, HPLC of filtrate

Structure (SMILES): O=C(c1ccc(Oc2ccccc2)cc1Cl)c1c[nH]c2ncnc(N[C@@H]3CC[C@@H](CO)OC3)c12 [Form 1 and Form 8]
- form observed after competitive slurrying (XRPD) (Competitive slurrying): Form 1 was the dominant form

Structure (SMILES): O=C(c1ccc(Oc2ccccc2)cc1Cl)c1c[nH]c2ncnc(N[C@@H]3CC[C@@H](CO)OC3)c12 [Form 1, (2-chloro-4-phenoxyphenyl)(4-(((3R,6S)-6-(hydroxymethyl)tetrahydro-2H-pyran-3-yl)amino)-7H-pyrrolo[2,3-d]pyrimidin-5-yl)methanone]
- area % purity and form changes, long term storage [1]: no decrease in area % purity or form changes
- Chemical Purity (% AUC) ([1]; 0 months): 98.9 % AUC
- Crystallinity (XRPD) ([1]; 0 months): Form 1
- Water Content (KF) (%) ([1]; 0 months): 0.16%
- Chemical Purity (% AUC) ([1]; 1 month): 98.8 % AUC
- Water Content (KF) (%) ([1]; 1 month): 0.28%
- Chemical Purity (% AUC) ([1]; 3 months): 98.8 % AUC
- Water Content (KF) (%) ([1]; 3 months): 0.41%
- Chemical Purity (% AUC) ([1]; 6 months): 98.9 % AUC
- Crystallinity (XRPD) ([1]; 6 months): Form 1
- Water Content (KF) (%) ([1]; 6 months): 0.47%
- Chemical Purity (% AUC) ([1]; 9 months): 98.9 % AUC
- Water Content (KF) (%) ([1]; 9 months): 0.29%
- Chemical Purity (% AUC) ([1]; 12 months): 98.8 % AUC
- Crystallinity (XRPD) ([1]; 12 months): Form 1
- Water Content (KF) (%) ([1]; 12 months): 0.46%
- Chemical Purity (% AUC) ([1]; 18 months): 99.0 % AUC
- Water Content (KF) (%) ([1]; 18 months): 0.49%
- Chemical Purity (% AUC) ([1]; 24 months): 98.9 % AUC
- Crystallinity (XRPD) ([1]; 24 months): Form 1
- Water Content (KF) (%) ([1]; 24 months): 0.37%
- hygroscopic nature by GVS [2]: non-hygroscopic
- Post-GVS analysis (form) [2]: remain Form 1
- uptake by GVS ([2]; at 90% RH): < 0.2%
- XRPD post GVS [2]: Remained
- GVS (hygroscopicity) [2]: <0.2% uptake
- Form (Acetone solubility): Form 2*
- Solubility (Acetone solubility; [5]): 12.3 mg/mL (≈ 25.7 mM)
- solid form after slurrying in acetone (XRPD) (Acetone solubility; [5]): conversion to Form 2
- solubility at 24 h (Acetone solubility; summary Table 11, read-out: Acetone solubility): 12.3 mg/mL (≈ 25.7 mM)
- Acetone solubility: residual solid (Acetone solubility): (Form 2 residual
- relative stability of the form (Competitive slurrying; under the conditions assessed): thermodynamically more stable form
- Purity after 1 week (%) ([3]; 40° C./75% RH): 99.4%
- Purity after 1 week (%) ([3]; 80° C.): 99.4%
- Purity after 1 week (%) ([3]; Ambient): 99.3%
- T = 0 purity (%) [3]: 99.3%
- area % purity and form changes after 1 week [3]: no decrease in area % purity or form changes
- Stability testing [3]: No drop in purity
- Solubility (mg/mL) (Aqueous solubility; [5]): API not detected
- Form (Aqueous solubility): Form 1
- XRPD post aqueous solubility (Aqueous solubility): Form 1
- aqueous solubility (Aqueous solubility; [6]): not soluble
- aqueous solubility (Aqueous solubility; [7]): API not detected
- Chemical Purity (% Area) ([4]; 0 months): 98.9 % Area
- Crystallinity (XRPD) ([4]; 0 months): Form 1
- Water Content (KF) (%) ([4]; 0 months): 0.16%
- Chemical Purity (% Area) ([4]; 1 month): 98.8 % Area
- Water Content (KF) (%) ([4]; 1 month): 0.36%
- Chemical Purity (% Area) ([4]; 3 months): 98.8 % Area
- Water Content (KF) (%) ([4]; 3 months): 0.53%
- Chemical Purity (% Area) ([4]; 6 months): 98.9 % Area
- Crystallinity (XRPD) ([4]; 6 months): Form 1
- Water Content (KF) (%) ([4]; 6 months): 0.57%
- area % purity and form changes, accelerated storage ([4]; 6 months): no decrease in area % purity or form changes

Structure (SMILES): O=C(c1ccc(Oc2ccccc2)cc1Cl)c1c[nH]c2ncnc(N[C@@H]3CC[C@@H](CO)OC3)c12 [Form 4 and Form 8]
- form observed after competitive slurrying (XRPD) (Competitive slurrying): Form 1 and Form 2 mixtures, pure Form 1, pure Form 4 and pure Form 2

Structure (SMILES): O=C(c1ccc(Oc2ccccc2)cc1Cl)c1c[nH]c2ncnc(N[C@@H]3CC[C@@H](CO)OC3)c12 [Form 4, (2-chloro-4-phenoxyphenyl)(4-(((3R,6S)-6-(hydroxymethyl)tetrahydro-2H-pyran-3-yl)amino)-7H-pyrrolo[2,3-d]pyrimidin-5-yl)methanone]
- hygroscopic nature by GVS [2]: non-hygroscopic
- Post-GVS analysis (form) [2]: remain Form 4
- uptake by GVS ([2]; at 90% RH): 0.4%
- XRPD post GVS [2]: Remained
- GVS (hygroscopicity) [2]: 0.4% uptake
- Form (Acetone solubility): Form 1
- Solubility (Acetone solubility; [5]): 15.1 mg/mL (≈ 31.5 mM)
- solid form after slurrying in acetone (XRPD) (Acetone solubility; [5]): converted to the Form 1 polymorph
- Acetone solubility: residual solid (Acetone solubility): (Form 1 residual
- Acetone solubility (Acetone solubility; summary Table 11): 15.1 mg/mL
- Purity after 1 week (%) ([3]; 40° C./75% RH): 98.9%
- Purity after 1 week (%) ([3]; 80° C.): 98.9%
- Purity after 1 week (%) ([3]; Ambient): 98.9%
- T = 0 purity (%) [3]: 98.8%
- area % purity and form changes after 1 week [3]: no decrease in area % purity or form changes
- Stability testing [3]: No drop in purity
- Solubility (mg/mL) (Aqueous solubility; [5]): API not detected
- Form (Aqueous solubility): Form 4
- XRPD post aqueous solubility (Aqueous solubility): Form 4
- aqueous solubility (Aqueous solubility; [6]): not soluble
- aqueous solubility (Aqueous solubility; [7]): API not detected

Structure (SMILES): O=C(c1ccc(Oc2ccccc2)cc1Cl)c1c[nH]c2ncnc(N[C@@H]3CC[C@@H](CO)OC3)c12 [Form 8, (2-chloro-4-phenoxyphenyl)(4-(((3R,6S)-6-(hydroxymethyl)tetrahydro-2H-pyran-3-yl)amino)-7H-pyrrolo[2,3-d]pyrimidin-5-yl)methanone]
- hygroscopic nature by GVS [2]: non-hygroscopic
- Post-GVS analysis (form) [2]: remain Form 8
- uptake by GVS, first cycle ([2]; at 90% RH, first cycle): < 0.3%
- uptake by GVS, second cycle ([2]; at 90% RH, second cycle): 0.8%
- XRPD post GVS [2]: Remained
- GVS (hygroscopicity) [2]: 0.8% uptake
- Form (Acetone solubility): Form 2*
- solid form after slurrying in acetone (XRPD) (Acetone solubility; [5]): conversion to Form 2
- solubility at 24 h (Acetone solubility; Acetone, ambient temperature, ca. 24 hours, read-out: Solubility): 11.5 mg/mL (≈ 24 mM)
- Acetone solubility: residual solid (Acetone solubility): (Form 2 residual
- Acetone solubility (Acetone solubility; summary Table 11): 11.5 mg/mL
- Purity after 1 week (%) ([3]; 40° C./75% RH): 99.0%
- Purity after 1 week (%) ([3]; 80° C.): 99.0%
- Purity after 1 week (%) ([3]; Ambient): 99.0%
- T = 0 purity (%) [3]: 99.0%
- area % purity and form changes after 1 week [3]: no decrease in area % purity or form changes
- Solubility (mg/mL) (Aqueous solubility; [5]): API not detected
- Form (Aqueous solubility): AXRPD
- XRPD post aqueous solubility (Aqueous solubility): Amorphous,
- aqueous solubility (Aqueous solubility; [6]): not soluble
- aqueous solubility (Aqueous solubility; [7]): API not detected

Structure (SMILES): O=C(c1ccc(Oc2ccccc2)cc1Cl)c1c[nH]c2ncnc(N[C@@H]3CC[C@@H](CO)OC3)c12 [Form 11, (2-chloro-4-phenoxyphenyl)(4-(((3R,6S)-6-(hydroxymethyl)tetrahydro-2H-pyran-3-yl)amino)-7H-pyrrolo[2,3-d]pyrimidin-5-yl)methanone]
- hygroscopic nature by GVS [2]: non-hygroscopic
